The source made the active and inactive calls. The rule behind the calls is not given here.
Assays:
Rattus norvegicus [1] = experiment: Toxicity in female Sprague-Dawley rat assessed as increase in formation of foamy macrophages in lungs at 75 mg/kg/day, po administered via gavage for 1 month; assay type: organism-based; conditions: in vivo
Beta-secretase 1 = Beta-secretase 1 (Homo sapiens, UniProt P56817); experiment: Inhibition of BACE1 in human SKNBE2 cells transfected with APP695 protein assessed as reduction in amyloid beta (1 to 42) levels after 18 hrs by sandwich alphalisa assay; assay type: cell-based
[2] = Drug metabolism in mouse liver microsomes at 1 uM after 15 mins in presence of NADPH by HPLC-MS/MS analysis; assay type: ADME, microsome; conditions: read-out: Drug metabolism
[3] = Fraction unbound in rat brain at 5 uM after 5 hrs by HPLC-MS/MS method based rapid equilibrium dialysis; assay type: ADME, tissue-based
HepG2 = experiment: Cytotoxicity against human HepG2 cells assessed as effect on cell health indicators after 72 hrs by automated fluorescence microscopy based high content screening based assay; assay type: ADME; conditions: hepg2, 72 h
[4] = Fraction unbound in dog plasma at 5 uM after 4.5 hrs by HPLC-MS/MS method based rapid equilibrium dialysis; assay type: ADME, cell-free, Canis lupus familiaris
[5] = Fraction unbound in rat plasma at 5 uM after 4.5 hrs by HPLC-MS/MS method based rapid equilibrium dialysis; assay type: ADME, cell-free
Cytochrome P450 2C19 = Cytochrome P450 2C19 (Homo sapiens, UniProt P33261); experiment: Reversible inhibition of recombinant human CYP2C19 by fluorescence-based assay; assay type: ADME
Cytochrome P450 3A4 = Cytochrome P450 3A4 (Homo sapiens, UniProt P08684); experiment: Time dependent inhibition of recombinant human CYP3A4 by fluorescence-based assay; assay type: ADME; conditions: recombinant enzyme
[6] = biological target: Kappa-type opioid receptor (Cavia porcellus) (UniProt P41144); experiment: Inhibition of Dunkin Hartley guinea pig kappa-type opioid receptor at 10 uM after 5 mins
[7] = Clearance in Sprague-Dawley rat at 2.5 mg/kg, iv administered as bolus dose by LC-MS/MS analysis; assay type: ADME, organism-based; conditions: in vivo
[8] = Volume of distribution at steady state in Swiss mouse at 2.5 mg/kg, iv administered as bolus dose by LC-MS/MS analysis; assay type: ADME, organism-based; conditions: in vivo, read-out: Vdss
Canis familiaris [9] = experiment: Volume of distribution at steady state in Beagle dog at 1 mg/kg, iv administered as bolus dose by LC-MS/MS analysis; assay type: ADME, organism-based, Canis lupus familiaris; conditions: in vivo
[10] = Half life in Swiss mouse at 2.5 mg/kg, iv administered as bolus dose by LC-MS/MS analysis; assay type: ADME, organism-based; conditions: in vivo
Canis familiaris [11] = experiment: Half life in Beagle dog at 1 mg/kg, iv administered as bolus dose by LC-MS/MS analysis; assay type: ADME, organism-based, Canis lupus familiaris; conditions: in vivo
[12] = Tmax in Swiss mouse at 10 mg/kg, po administered as bolus dose by LC-MS/MS analysis; assay type: ADME, organism-based; conditions: in vivo
[13] = Tmax in Sprague-Dawley rat at 10 mg/kg, po administered as bolus dose by LC-MS/MS analysis; assay type: ADME, organism-based; conditions: in vivo
[14] = AUC (0 to infinity) in Swiss mouse at 10 mg/kg, po administered as bolus dose by LC-MS/MS analysis; assay type: ADME, organism-based; set-up: dose 10 mg/kg, time infinity, route oral; conditions: in vivo
[15] = AUC (0 to infinity) in Sprague-Dawley rat at 10 mg/kg, po administered as bolus dose by LC-MS/MS analysis; assay type: ADME, organism-based; set-up: dose 10 mg/kg, route oral, time infinity; conditions: in vivo
[16] = Oral bioavailability in Swiss mouse at 10 mg/kg administered as bolus dose by LC-MS/MS analysis; assay type: ADME, organism-based; conditions: in vivo
Rattus norvegicus [17] = experiment: Systemic clearance in Sprague-Dawley rat at 2.5 mg/kg, iv administered as bolus dose by LC-MS/MS analysis relative to liver blood flow; assay type: ADME, organism-based; conditions: in vivo
Salmonella typhimurium [18] = experiment: Mutagenicity in Salmonella typhimurium TAmix up to 500 ug/ml in presence of rat liver S9 fraction by Ames 2 assay; assay type: toxicity, organism-based; conditions: salmonella enterica subsp. enterica serovar typhimurium
Salmonella typhimurium [19] = experiment: Mutagenicity in Salmonella typhimurium TAmix up to 500 ug/ml in absence of rat liver S9 fraction by Ames 2 assay; assay type: toxicity, organism-based; conditions: salmonella enterica subsp. enterica serovar typhimurium
TK6 = experiment: Genotoxicity in human TK6 cells at 188 ug/ml after 4 hrs in presence of rat liver S9 fraction by micronucleus assay; assay type: toxicity, cell-based; conditions: s9, 4 h
[20] = Ratio of drug level in liver to plasma of Sprague-Dawley rat at 10 mg/kg, po; assay type: ADME, organism-based
[21] = Ratio of drug level in lung to plasma of Sprague-Dawley rat at 10 mg/kg, po; assay type: ADME, organism-based
Rattus norvegicus [22] = experiment: Toxicity in Sprague-Dawley rat assessed as effect on food consumption at 225 mg/kg/day, po administered via gavage for 1 month; assay type: organism-based; conditions: in vivo
[23] = Cmax in male Sprague-Dawley rat at 75 mg/kg, po measured after 1 month repeated dosing by LC-MS/MS analysis; assay type: ADME, organism-based; set-up: dose 75 mg/kg, route oral; conditions: in vivo
[24] = Cmax in female Sprague-Dawley rat at 75 mg/kg, po measured after 1 month repeated dosing by LC-MS/MS analysis; assay type: ADME, organism-based; set-up: dose 75 mg/kg, route oral; conditions: in vivo
Cavia porcellus = experiment: Cardiotoxicity in anesthetized guinea pigs assessed as QTcB prolongation at plasma concentration of 11500 ng/ml dosed up to 10 mg/kg, iv administered over a period of 5 min at 15 min interval by ECG analysis (reference value: 7%); assay type: toxicity, organism-based; conditions: guinea pig, in vivo
Canis familiaris [25] = experiment: Toxicity in Beagle dog assessed as induction of appearance changes at 0.63 to 20 mg/kg, po qd for 1 day; assay type: organism-based, Canis lupus familiaris; conditions: in vivo, 24 h
Canis familiaris [26] = experiment: Toxicity in Beagle dog assessed as induction of appearance changes at 0.63 to 20 mg/kg, po qd for 6 days; assay type: organism-based, Canis lupus familiaris; conditions: in vivo, 144 h
[27] = Safety index, ratio of NOAEL for cardiotoxicity in anesthetized guinea pigs assessed as total drug level causing QTcB prolongation dosed up to 10 mg/kg, iv administered over a period of 5 min at 15 mins interval by ECG analysis to EC50 for Antialzheimer activity in po dosed Beagle dog assessed as reduction in amyloid beta (1 to 40) levels measured after 1 hr post dose by ELISA; assay type: toxicity, organism-based; conditions: guinea pig, in vivo
[28] = Toxicity in Sprague-Dawley rat administered daily via oral gavage for 1 month; assay type: organism-based; conditions: in vivo
Canis familiaris [29] = experiment: Toxicity in beagle dog assessed as induction of reduction in general activity at 70 to 250 mg/kg/day, po qd for 1 week; assay type: organism-based, Canis lupus familiaris; conditions: in vivo, 168 h
Canis familiaris [30] = experiment: Toxicity in beagle dog assessed as induction of tremors at 70 to 250 mg/kg/day, po qd for 1 week; assay type: organism-based, Canis lupus familiaris; conditions: in vivo, 168 h
[31] = Toxicity in male beagle dog at 20 to 250 mg/kg/day, po qd for 1 month; assay type: organism-based, Canis lupus familiaris; conditions: in vivo
Homo sapiens = organism: Homo sapiens; experiment: Selectivity for BACE1 (unknown origin) over BACE2 (unknown origin)
[32] = Cmax in male Beagle dog at 70 mg/kg, po measured after 1 month repeated dosing by LC-MS/MS analysis; conditions: in vivo
[33] = AUC (0 to 24 hrs) in male Beagle dog at 70 mg/kg, po measured after 1 month repeated dosing by LC-MS/MS analysis; conditions: in vivo
[34] = AUC (0 to 24 hrs) in female Beagle dog at 70 mg/kg, po measured after 1 month repeated dosing by LC-MS/MS analysis; conditions: in vivo
Canis familiaris [35] = experiment: Antialzheimer activity in po dosed Beagle dog assessed as reduction in CSF amyloid beta (1 to 42) levels measured after 49 hrs post dose by MesoScale electrochemiluminescence; conditions: Canis lupus familiaris

Chain of Cytochrome P450 3A4 (P08684 whole entry): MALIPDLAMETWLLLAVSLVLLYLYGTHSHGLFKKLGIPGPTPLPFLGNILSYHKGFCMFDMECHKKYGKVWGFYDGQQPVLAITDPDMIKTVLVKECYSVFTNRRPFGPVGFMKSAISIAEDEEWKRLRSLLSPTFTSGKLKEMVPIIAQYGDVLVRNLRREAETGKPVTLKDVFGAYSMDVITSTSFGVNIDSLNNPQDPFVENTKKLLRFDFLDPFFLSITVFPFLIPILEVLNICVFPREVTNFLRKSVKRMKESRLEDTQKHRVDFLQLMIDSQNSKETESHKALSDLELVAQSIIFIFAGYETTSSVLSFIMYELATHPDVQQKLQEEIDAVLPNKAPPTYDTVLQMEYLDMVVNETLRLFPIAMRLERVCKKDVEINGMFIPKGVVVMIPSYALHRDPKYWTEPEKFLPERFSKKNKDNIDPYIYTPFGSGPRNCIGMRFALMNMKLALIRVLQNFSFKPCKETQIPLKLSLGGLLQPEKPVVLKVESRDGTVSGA
Chain of Cytochrome P450 2C19 (P33261 whole entry): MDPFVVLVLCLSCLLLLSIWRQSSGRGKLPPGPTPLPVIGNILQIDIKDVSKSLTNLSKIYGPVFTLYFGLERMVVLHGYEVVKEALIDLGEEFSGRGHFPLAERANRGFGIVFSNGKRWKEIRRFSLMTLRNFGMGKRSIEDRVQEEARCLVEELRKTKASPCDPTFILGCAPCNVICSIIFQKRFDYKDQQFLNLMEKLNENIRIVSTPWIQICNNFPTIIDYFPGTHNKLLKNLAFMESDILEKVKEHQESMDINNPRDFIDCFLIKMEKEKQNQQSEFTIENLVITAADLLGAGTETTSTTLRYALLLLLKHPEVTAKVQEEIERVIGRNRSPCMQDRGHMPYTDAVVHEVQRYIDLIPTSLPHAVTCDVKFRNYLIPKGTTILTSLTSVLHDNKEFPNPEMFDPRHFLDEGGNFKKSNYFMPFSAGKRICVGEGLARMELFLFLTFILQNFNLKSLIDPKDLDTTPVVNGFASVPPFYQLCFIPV
Chain of Kappa-type opioid receptor (Cavia porcellus) (P41144 whole entry): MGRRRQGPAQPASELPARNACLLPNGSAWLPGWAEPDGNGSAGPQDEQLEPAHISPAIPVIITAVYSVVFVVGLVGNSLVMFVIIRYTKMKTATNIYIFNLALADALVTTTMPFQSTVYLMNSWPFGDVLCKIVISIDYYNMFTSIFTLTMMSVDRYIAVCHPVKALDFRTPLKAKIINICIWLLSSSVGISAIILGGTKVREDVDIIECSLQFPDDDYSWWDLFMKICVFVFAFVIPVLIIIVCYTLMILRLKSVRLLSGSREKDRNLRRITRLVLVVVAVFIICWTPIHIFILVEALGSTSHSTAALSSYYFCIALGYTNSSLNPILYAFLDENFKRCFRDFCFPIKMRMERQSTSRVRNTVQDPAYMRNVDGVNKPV
Chain of Beta-secretase 1 (P56817 whole entry): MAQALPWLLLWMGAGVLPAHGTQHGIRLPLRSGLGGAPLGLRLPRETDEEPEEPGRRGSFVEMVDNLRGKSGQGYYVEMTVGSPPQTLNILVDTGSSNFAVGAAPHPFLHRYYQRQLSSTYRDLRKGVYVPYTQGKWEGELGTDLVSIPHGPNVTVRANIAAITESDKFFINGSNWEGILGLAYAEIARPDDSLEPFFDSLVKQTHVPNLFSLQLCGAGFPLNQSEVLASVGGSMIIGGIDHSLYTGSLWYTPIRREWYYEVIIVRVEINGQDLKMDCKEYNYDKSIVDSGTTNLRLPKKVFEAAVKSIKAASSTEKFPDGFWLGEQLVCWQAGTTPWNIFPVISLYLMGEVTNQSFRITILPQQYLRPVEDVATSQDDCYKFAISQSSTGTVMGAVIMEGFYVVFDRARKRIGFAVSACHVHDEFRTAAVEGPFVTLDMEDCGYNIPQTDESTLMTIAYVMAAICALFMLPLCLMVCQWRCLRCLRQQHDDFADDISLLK

In the case of `C[C@]1(c2cc(NC(=O)c3ccc(C#N)cn3)ccc2F)N=C(N)CO[C@H]1C(F)(F)F`, the Activity (Rattus norvegicus [1]) is reported as “Toxic”, the IC50 (Beta-secretase 1) is reported as 6 nM and the metabolised at 0.25 h, 1 µM [2] is reported as 13%. It also gave a fraction unbound at 5 h, 5 µM [3] of 0.03, an MTC (HepG2) of 31.5 µM and a fraction unbound at 4.5 h, 5 µM [4] of 0.26. For the same compound, the fraction unbound at 4.5 h, 5 µM [5] was 0.26, the IC50 (Cytochrome P450 2C19) was > 30000 nM and the TDI (Cytochrome P450 3A4) was “Not Active”. The inhibition [6] was 76%, the clearance [7] was 47 mL/min/kg and the Vd [8] was 7.6 L/kg. It also gave a Vdss (Canis familiaris [9]) of 7.6 L/kg, a half-life [10] of 1.4 h and a t1/2 (Canis familiaris [11]) of 12 h. For the same compound, the Tmax [12] was 1 h, the Tmax [13] was 2 h and the AUC(0-inf) [14] was 1330 ng·h/mL. It also gave an AUC(0-inf) [15] of 1220 ng·h/mL, a bioavailability [16] of 45% and a CL (Rattus norvegicus [17]) of 67%. The Activity (Salmonella typhimurium [18]) was “Non-Toxic”, the Activity (Salmonella typhimurium [19]) was “Non-Toxic” and the Activity (TK6) was “Non-Toxic”. The Kp [20] was 31, the Kp [21] was 169 and the Activity (Rattus norvegicus [22]) was “Non-Toxic”. The Cmax at 1 month [23] was 1490 ng/mL, the Cmax at 1 month [24] was 2720 ng/mL and the Activity (Cavia porcellus) was 9%. For the same compound, the Activity (Canis familiaris [25]) was “Non-Toxic”, the Activity (Canis familiaris [26]) was “Non-Toxic” and the selectivity ratio [27] was 50. For the same compound, the NOAEL at 1 month [28] was 75 mg/kg, the Activity (Canis familiaris [29]) was “Toxic” and the Activity (Canis familiaris [30]) was “Toxic”. It also gave an NOAEL at 1 month [31] of 70 mg/kg/day, a Selectivity ratio (Homo sapiens) of 10 and a Cmax at 1 month [32] of 1970 ng/mL. The AUC at 24 h [33] was 26300 ng·h/mL, the AUC at 24 h [34] was 23100 ng·h/mL and the Activity (Canis familiaris [35]) was “Active”.
